Values of other authors, collected in patent publication US10201964B2, “Treatment for reducing the toxicity of 3D-printed parts” (The Regents of the University of California, priority 2015, dated 2019).

Key:
[1] = when used as scaffolds

| SMILES | toxic effects on embryonic and fetal development (rat fetuses) | cardiovascular failure [1] |
| --- | --- | --- |
| C=CC(=O)O [acrylic acid] | toxic effects on embryonic and fetal development in rat fetuses | – |
| C=C(C)C(=O)O [methacrylic acid] | toxic effects on embryonic and fetal development in rat fetuses | – |
| C=C(C)C(=O)OC [methylmethacrylate] | – | associated with irreversible cardiovascular failure |
